Results from publication PMC8038331, “Discovery of a Novel Acetylcholinesterase Inhibitor by Fragment-Based Design and Virtual Screening” (Molecules, 2021).
Where “and” joins values, the source holds several entries; their conditions need not be identical. Equal entries are not always repeated.

What was measured:
[1] = biological target: T1, acetylcholinesterase from Electrophorus electricus (eeAChE) (Electrophorus electricus, UniProt O42275); experiment: biochemical; assay type: biochemical
T1 construct: purchased Sigma-Aldrich
Procedure: However, the docking simulations were conducted on human AChE (rhAChE).
The microplate assay used for measuring AChE inhibitory activity was as described by Ellman with the modifications added by López. Acetylthiocholine iodide (ATCI) in a solution with 5,5′-dithiobis(2-nitrobenzoic acid) (DTNB) was used as a substrate for the acetylcholinesterase from Electrophorus electricus (Steinheim, Sigma-Aldrich, Germany). 50 μL of AChE (0.25 U/mL) dissolved in phosphate buffer (8 mM K2HPO4, 2.3 mM NaH2PO4, 0.15 M NaCl, pH 7.5) and 50 μL of the sample dissolved in the same buffer were added to the wells. The plates were incubated for 30 min at room temperature before the addition of 100 μL of the substrate solution (0.04 M Na2HPO4, 0.2 mM DTNB, 0.24 mM ATCI, pH 7.5). […] Enzyme activity was calculated as an inhibition percentage compared to an assay using a buffer without any inhibitor. […] The AChE inhibitory data were analyzed with the software package Prism 9 (GraphPad Inc., San Diego, USA). The IC50 values were measured in triplicate, and the results are presented as means ± SD.

[2] = Neurotoxicity test, MTT-dye reduction assay on neuro-2A cells; assay type: cell-based, murine; settings: mouse, neuro-2A neuroblastoma cells, 72 h incubation
Procedure: The cytotoxicity of compound 8 was tested on neuro-2A cells as described in the Materials and Мethods section.
To assess the neurocytotoxicity of the selected compound, murine neuroblastoma neuro-2A cells (German collection DSMZ, Braunschweig, Germany) were used. They were cultivated under standard conditions: complete medium (90% DMEM, 10% heat-inactivated FBS, and non-essential amino acids); 37 °C and 5% CO2 in a fully humidified atmosphere. The cell line was kept in the logarithmic growth phase by splitting 1:4 once a week using trypsin/EDTA. About 30% of the cells grew like neuronal cells. For the experimental evaluation of the cytotoxicity, the cells were plated in 96-well flat-bottomed plates at the recommended density of around 1100 cells/25 cm^2. After 24 h, the cells were treated with a series of concentrations (100, 50, 25, 12.5, 6.25 µM) of the tested compound, and after 72 h incubation, an MTT-dye reduction assay was performed. MTT stock solution (10 mg/mL in PBS) was added (0.01 mL/well) at the end of incubation. Plates were further incubated at 37 °C for 4 h. Next, the formazan crystals were dissolved by the addition of 0.110 mL/well 5% formic acid in 2-propanol (v/v). Absorption was measured at 580 nm wavelength on an automated ELISA reader Labexim LMR1. […]

[3] = system: murine neuroblastoma neuro-2A cells; settings: read-out: Neurotoxicity on neuro-2A cells (IC50); cited from earlier work

T1 sequence (O42275 24-633): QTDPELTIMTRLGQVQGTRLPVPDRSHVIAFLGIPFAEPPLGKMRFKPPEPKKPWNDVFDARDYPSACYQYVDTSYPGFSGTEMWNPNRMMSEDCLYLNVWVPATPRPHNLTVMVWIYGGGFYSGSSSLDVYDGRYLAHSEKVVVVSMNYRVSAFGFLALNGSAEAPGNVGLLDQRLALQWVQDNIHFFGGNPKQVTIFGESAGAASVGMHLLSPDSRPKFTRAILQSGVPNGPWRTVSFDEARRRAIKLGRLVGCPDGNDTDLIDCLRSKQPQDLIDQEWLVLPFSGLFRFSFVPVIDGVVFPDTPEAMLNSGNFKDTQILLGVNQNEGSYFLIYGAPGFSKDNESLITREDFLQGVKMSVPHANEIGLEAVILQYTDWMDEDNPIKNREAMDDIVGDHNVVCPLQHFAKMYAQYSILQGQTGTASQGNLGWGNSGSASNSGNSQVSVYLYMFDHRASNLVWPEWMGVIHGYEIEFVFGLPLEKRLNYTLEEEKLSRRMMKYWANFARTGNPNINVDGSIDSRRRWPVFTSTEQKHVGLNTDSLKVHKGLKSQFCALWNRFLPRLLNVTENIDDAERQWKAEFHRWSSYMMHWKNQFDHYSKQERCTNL

COc1ccc2c3c1O[C@H]1C[C@@H](O)C=C[C@@]31CCN(CCNC(=O)CCc1ccccc1-c1ccccc1)C2 [Compound 8, 3-(biphenyl-2-yl)-N-{2-[(4aS,6R,8aS)-6-hydroxy-3-methoxy-5,6,9,10-tetrahydro-4aH-[1]benzofuro[3a,3,2-ef][2]benzazepin-11(12H)-yl]ethyl}propanamide]
Times more active than GAL (AChE inhibition) [1]: 68 times | IC50 ([1]; eeAChE, Ellman's method, 30 min preincubation, mean ± SD, triplicate, read-out: Inhibitory activity on eeAChE (IC50)): 28 nM and 27.8 nM | IC50 at 72 h [2]: > 100000 nM

COc1ccc2c3c1O[C@H]1C[C@@H](O)C=C[C@@]31CCN(C)C2 [GAL, Galantamine]
IC50 [3]: > 50000 nM
